Patent publication US20100279941A1, “CD36 MODULATION AND USES THEREOF” (priority 2009, published 2010)

What was measured:
[1] = Plasma cholesterol, triglyceride, NEFA and glycemia after myocardial ischaemia-reperfusion; assay type: in vivo, mice; conditions: for Triglyceride / Glycemia Post-Reperfusion / Total Cholesterol / Glycemia Before Ischemia: 300 μg/kg/day for 2 weeks; for Triglyceride: mean ± S.E.M.; for Glycemia Post-Reperfusion / Total Cholesterol / Glycemia Before Ischemia: mean ± S.E.M. (n)
Text: (§1) Animals. CD36^−/− mice were generated by targeted homologous recombination and backcrossed six times to C57BI/6. Wild-type control littermates (CD36^+/+) were bred from the same cross and were therefore of identical genetic background [Febbraio et al., 2000]. Male mice, aged 23 (±1) weeks, were used for experiments. They were fed standard chow (#5075, Charles Rivers, Saint-Constant, Québec, Canada) and water ad libitum, and housed singly during treatment periods (2 or 10 weeks). Daily pharmacological treatments with 300 μg/kg of EP 80317 or CP1A(IV) or vehicle (0.9% NaCl) were done by subcutaneous (s.c.) injections.
Experimental model of IHD: Transient left coronary artery ligation in vivo. Mice were subjected to a transient LCAL surgery as described before, with minor modifications [Tarnayski et al., 2004]. Mice were injected i.p. with buprenorphine (0.05 mg/kg) and placed in an induction chamber with inhalation anesthesia comprised of 3% isoflurane mixed with 100% oxygen. Mice were intubated with a blunt ended 20-gauge catheter into the trachea via the mouth and mechanically ventilated at a tidal volume of 7 ml/kg at 130 respirations/min with a MiniVent™ mouse ventilator (model 845, Harvard Apparatus, Saint-Laurent, QC, Canada). Anesthesia was maintained with 1.5-2% isoflurane and the animals were kept warm using electrical heating pads during the surgical procedure. The chest was opened by a horizontal incision through the skin and muscle layers at the third intercostal space exposing the left side of the heart. […] Visual blanching distal to the coronary occlusion confirmed myocardial ischaemia. Lidocaine (6 mg/kg) was administered i.p. just following occlusion and prior to reperfusion. After 30 minutes, the PE10 tubing was removed allowing reperfusion. The lungs were reinflated and the chest wound closed layer by layer before extubation. […] Hearts were immediately frozen at −80° C. unless otherwise stated. […]
Plasma and tissue assays. Plasma insulin, triglyceride (TG) and NEFA levels were measured as previously described [Menard et al., 2009]. In vitro lipolysis was prevented by collecting blood in the presence of 40 mM Orlistat (Calbiochem, San Diego, Calif., USA) and centrifuging rapidly. Plasma and tissue lipids were extracted according to the method described by Folch et al. [Folch et al., 1957]. The non-metabolized fraction of [^18F]-FTHA in plasma was determined using thin-layer chromatography from blood samples taken 2, 3, 5, 10, and 30 min after FTHA injection, and the metabolite corrected plasma curve was calculated by linear interpolation and used to correct the plasma input function (modified from [Ci et al., 2006]). Myocardial mitochondria were extracted with measurement of GDH activity to correct for extraction efficiency [Menard et al., 2009].

[2] = tested on: CD36^+/+ and CD36^−/− mice; assay: Area at risk and infarct size after 30-min LCAL and 48 hours reperfusion (Evans blue/TTC); assay type: in vivo
Text: as §1
C57BU6 mice were bred in house. Male mice, aged 23 (±1) weeks, were used for experiments. They were fed standard chow (#5075, Charles Rivers, Saint-Constant, Québec, Canada) and water ad libitum, and housed singly during treatment periods (2 weeks). Daily pharmacological treatments with 300 μg/kg (289 nmol/kg) of EP 80317 or 289 nmol/kg of CP-3(IV), 289 nmol/kg of CP-AP-4 or vehicle (0.9% NaCl) were done by subcutaneous (s.c.) injections.
Experimental model of IHD: Transient left coronary artery ligation in vivo. Mice were subjected to a transient LCAL surgery as described before, with minor modifications [Tarnayski et al., 2004]. Mice were injected i.p. with buprenorphine (0.05 mg/kg) and placed in an induction chamber with inhalation anesthesia comprised of 3% isoflurane mixed with 100% oxygen. Mice were intubated with a blunt ended 20-gauge catheter into the trachea via the mouth and mechanically ventilated at a tidal volume of 7 ml/kg at 130 respirations/min with a MiniVent™ mouse ventilator (model 845, Harvard Apparatus, Saint-Laurent, QC, Canada). Anesthesia was maintained with 1.5-2% isoflurane and the animals were kept warm using electrical heating pads during the surgical procedure. The chest was opened by a horizontal incision through the skin and muscle layers at the third intercostal space exposing the left side of the heart. […] Visual blanching distal to the coronary occlusion confirmed myocardial ischaemia. Lidocaine (6 mg/kg) was administered i.p. just following occlusion and prior to reperfusion. After 30 minutes, the PE10 tubing was removed allowing reperfusion. The lungs were reinflated and the chest wound closed layer by layer before extubation. At 6 hours following reperfusion, mice were anesthetized (isoflurane), a blood sample withdrawn, and the heart arrested in diastole by an intravenous injection of 1 M KCl (0.5 mL). Hearts were immediately frozen at −80° C. unless otherwise stated.
Evaluation of area at risk and infarct size. Two days after reperfusion, the left anterior descending (LAD) coronary artery was re-occluded at the original site and the abdominal aorta was injected retrogradly with 5% Evans blue dye to delineate the AAR by the absence of dark blue staining. The left ventricle, including the interventricular septum, was dissected and cut into transverse 1-mm slices from the apex to the base, using an acrylic matrix (Alto Inc., Hatfield, Pa., USA). The slices were incubated in 1% triphenyltetrazolium chloride solution at 37° C. for 15 min and placed in 10% neutral buffered formalin for 12 hours. Each slice was weighed and photographed on both sides with a digital camera (Nikon, Coolpix™ 4500, Mississauga, Ontario, Canada). The total LV area, AAR and IA were determined for each side of a slice by planimetric analysis using Adobe CS3 Photoshop™ software (Ottawa, ON, Canada), and averaged. The infarct weight was determined as follows: [(A1×WT1)+(A2×WT2)+(A3×WT3)+(A4×WT4) . . . ] where A and WT are the infarct area and weight of the section, respectively. The AAR weight was calculated in a similar manner, but by subtracting the blue (viable) stained zone from the weight. The results are expressed in terms of % IA/AAR, IA/LV and AAR/LV.

[3] = 6 h post-reperfusion, CD36^+/+ mice
[4] = 6 h post-reperfusion, CD36^−/− mice
[5] = 48 h post-reperfusion, CD36^+/+ mice
[6] = 48 h post-reperfusion, CD36^−/− mice
[7] = 2-week treatment 300 μg/kg/d, CD36^+/+ mice, 48 hours reperfusion, p<0.05 vs vehicle

Which “effect on plasma TG” value ([1]; 6 or 48 hours following reperfusion, both CD36^+/+ and CD36^−/− mice, in words) does the source give for “HAIC-2MeDTrp-DLys-Trp-DPhe-Lys-NH2 [EP 80317]” here?
The value was “did not modulate”.

What about the “attenuation of plasma NEFA elevation” value ([1]; 6 hours after reperfusion, CD36-dependent (CD36^+/+ mice), p<0.05 vs vehicle) of the same substance?
The value was 29%.

And the Triglyceride [1, 3]?
Its Triglyceride is 0.35 ± 0.04 mmol/L.

And the “Glycemia Post-Reperfusion” value [1, 3]?
The value was 13.6 ± 1.2 (20) mmol/L.

And the “Total Cholesterol” value [1, 3]?
Its value is 1.4 ± 0.3 (4) mmol/L.

And the Triglyceride [1, 4]?
Its Triglyceride is 0.58 ± 0.16 mmol/L.

And the “Glycemia Post-Reperfusion” value [1, 4]?
Its value is 8.8 ± 0.6 (17) mmol/L.

What about the “Total Cholesterol” value [1, 4] of the same substance?
Its value is 1.9 ± 0.1 (5) mmol/L.

And the “effect on plasma NEFA levels” value ([1]; 48 hours after reperfusion, in words)?
The value was “no effect”.

What about the Triglyceride [1, 5] of the same substance?
The Triglyceride was 0.44 ± 0.03 mmol/L.

And the “Total Cholesterol” value [1, 5]?
The value was 1.5 ± 0.03 (6) mmol/L.

What about the Triglyceride [1, 6] of the same substance?
The Triglyceride was 0.55 ± 0.06 mmol/L.

What about the “Total Cholesterol” value [1, 6] of the same substance?
The value was 2.5 ± 0.2 (4) mmol/L.

What about the “Glycemia Before Ischemia” value ([1]; CD36^+/+ mice) of the same substance?
The value was 10.6 ± 0.4 (15) mmol/L.

And the “Glycemia Before Ischemia” value ([1]; CD36^−/− mice)?
The value was 9.3 ± 0.5 (8) mmol/L.

What about the “reduction of IA/AAR ratio” value [2, 7] of the same substance?
The value was 31%.

What about the “reduction of IA/LV ratio” value [2, 7] of the same substance?
The value was 34%.

And the area-at-risk ([2]; CD36^+/+ (C57BL/6) mice, 289 nmol/kg 2 weeks, 48 hours reperfusion, mean (±SE))?
Its area-at-risk is 51 (±5) %.

And the “reduction of IA/LV ratios” value ([2]; CD36^+/+ (C57BL/6) mice, 289 nmol/kg 2 weeks, 48 hours reperfusion, p<0.001 vs 0.9% NaCl)?
The value was 48%.

And the “effect on infarct size” value ([2]; CD36^−/− mice, 48 hours reperfusion, in words)?
The value was “did not modulate”.

And the “effect on AAR/LV” value ([2]; pretreatment 14 days, both CD36^+/+ and CD36^−/− mice, in words)?
The value was “did not modulate”.
